Data published in patent US20250230138A1, “COMPOUNDS HAVING A T-STRUCTURE FORMED BY AT LEAST FOUR CYCLES FOR USE IN THE TREATMENT OF CANCER AND OTHER INDICATIONS” (TheRas, Inc., priority 2022, published 2025).
Read-outs that look alike come from different tables or passages of the source.

Tests used:
[1] = biological target: Cys242 in human PIK3CA (157-299) (Homo sapiens (Human), UniProt P42336); assay: Covalent modification assay using MALDI-TOF MS; format: biochemical; settings: 4 h reaction time point; 1 μM protein target, 1:5 protein to compound ratio (compounds 853-1279)
Chain of Cys242 in human PIK3CA (157-299) (P42336 157-299): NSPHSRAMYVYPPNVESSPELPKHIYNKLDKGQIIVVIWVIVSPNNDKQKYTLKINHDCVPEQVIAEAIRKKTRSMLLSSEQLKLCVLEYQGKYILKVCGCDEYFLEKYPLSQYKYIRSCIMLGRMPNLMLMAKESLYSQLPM
Summary of the method: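 PIK3CA (157-299), 3.33 or 1 μM in 20 mM HEPES, 150 mM NaCl, 2 mM MgCl2, pH 7.3, was incubated with compound at room temperature in the dark for 15 min, 30 min, 2 h or 4 h. Linear MALDI-TOF read-out; % modification = adduct peak height over summed heights of all protein species.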

pAKT in BT474 cells = assay: Cell-based pAKT HTRF assay in BT474 cells; settings: BT474 cells, 4 hr incubation, Compounds 10-999, read-out: pAKT inhibition IC50 in BT474 cells
Summary of the method: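 Cells grown in DMEM with 10% FBS were exposed to compounds for 4 hr in 0.25% DMSO, using a 9-point, 3-fold dilution series that starts at 3 μM. Lysates were incubated with d2 and Eu Cryptate antibodies for 4–24 h at room temperature, and HTRF was read at 615 nm emission.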

## C=CC(=O)N1CCn2nc(-c3nc(-c4ccc5c(c4)C(=O)N(C)C5)c4ccsc4c3-c3c(F)cc(F)cc3OCCO)cc2C1C (stereo not shown) [Compound 867]
[1]
  % of modification: A (percent of modification of PIK3CA protein ≥75%)
pAKT in BT474 cells
  IC50: < 100 nM

## C=CC(=O)N1CCn2nc(-c3nc(-c4ccc(=O)n(C)c4)c4ccsc4c3-c3c(F)cc(F)cc3OCCO)cc2C1C (stereo not shown) [Compound 872]
[1]
  % of modification: A (percent of modification of PIK3CA protein ≥75%)
pAKT in BT474 cells
  IC50: < 100 nM

## C=C(F)C(=O)N1Cc2cc(-c3nc(-c4ccc5c(cnn5C)c4)c4ccsc4c3-c3c(F)cc(F)cc3OCCOC)nn2CC1C (stereo not shown) [Compound 873]
[1]
  % of modification: D (percent of modification <25%)
pAKT in BT474 cells
  IC50: 100 to 1000 nM

## C=CC(=O)N1CCn2nc(-c3nc(-c4ccc5c(c4)CN(C)C5=O)c4ccsc4c3-c3c(F)cc(F)cc3OCCO)cc2C1C (stereo not shown) [Compound 875]
[1]
  % of modification: A (percent of modification of PIK3CA protein ≥75%)
pAKT in BT474 cells
  IC50: < 100 nM

## C=CC(=O)N1CCn2nc(-c3nc(-c4ccc5c(c4)CCNC5=O)c4ccsc4c3-c3c(F)cc(F)cc3OCCO)cc2[C@H]1C [Compound 876, 6-((S)-6-((R)-5-acryloyl-4-methyl-4,5,6,7-tetrahydropyrazolo[1,5-a]pyrazin-2-yl)-7-(2,4-difluoro-6-(2-hydroxyethoxy)phenyl)thieno[3,2-c]pyridin-4-yl)-3,4-dihydroisoquinolin-1(2H)-one]
[1]
  % of modification: A (percent of modification of PIK3CA protein ≥75%)
pAKT in BT474 cells; Homo sapiens, BT-474
  IC50: < 100 nM

## C=CC(=O)N1CCn2nc(-c3nc(-c4cnc5c(cnn5C)c4)c4ccsc4c3-c3c(F)cc(F)cc3OCCO)cc2C1C (stereo not shown) [Compound 877]
[1]
  % of modification: A (percent of modification of PIK3CA protein ≥75%)
pAKT in BT474 cells
  IC50: < 100 nM

## C=CC(=O)N1CCn2nc(-c3nc(-c4ccc5c(c4)C(=O)N(C)C5)c4ccsc4c3-c3c(F)cc(F)cc3OCC(C)O)cc2C1C (stereo not shown) [Compound 878]
[1]
  % of modification: A (percent of modification of PIK3CA protein ≥75%)
pAKT in BT474 cells
  IC50: < 100 nM

## C=CC(=O)N1CCn2nc(-c3nc(-c4ccc5c(c4)C(=O)NC5)c4ccsc4c3-c3c(F)cc(F)cc3OCC(C)O)cc2C1C (stereo not shown) [Compound 879]
[1]
  % of modification: A (percent of modification of PIK3CA protein ≥75%)
pAKT in BT474 cells
  IC50: < 100 nM

## C=CC(=O)N1Cc2cc(-c3nc(-c4ccc(=O)n(CCN(C)C)c4)c4ccsc4c3-c3c(F)cc(F)cc3OCCOC)nn2C[C@H]1C [Compound 880]
[1]
  % of modification: A (percent of modification of PIK3CA protein ≥75%)
pAKT in BT474 cells
  IC50: < 100 nM

## C=CC(=O)N1Cc2cc(-c3nc(-c4ccc5nn(C)cc5c4)c4ccsc4c3-c3c(F)cc(F)cc3OCC(C)(C)O)nn2[C@@H](C)C1 [Compound 881]
[1]
  % of modification: A (percent of modification of PIK3CA protein ≥75%)
pAKT in BT474 cells
  IC50: < 100 nM

## C=CC(=O)N1Cc2cc(-c3nc(-c4cnnc(C)c4)c4ccsc4c3-c3c(F)cc(F)cc3OCC(C)(C)O)nn2[C@@H](C)C1 [Compound 882]
[1]
  % of modification: A (percent of modification of PIK3CA protein ≥75%)
pAKT in BT474 cells
  IC50: < 100 nM

## C=CC(=O)N1Cc2cc(-c3nc(-c4cn(C)cn4)c4ccsc4c3-c3c(F)cc(F)cc3OCC(C)(C)O)nn2[C@@H](C)C1 [Compound 883]
[1]
  % of modification: A (percent of modification of PIK3CA protein ≥75%)
pAKT in BT474 cells
  IC50: < 100 nM

## C=CC(=O)N1Cc2cc(-c3nc(-c4cnnc(OCCN(C)C)c4)c4ccsc4c3-c3c(F)cc(F)cc3OCCOC)nn2C[C@H]1C [Compound 884]
[1]
  % of modification: A (percent of modification of PIK3CA protein ≥75%)
pAKT in BT474 cells
  IC50: < 100 nM

## C=CC(=O)N1Cc2cc(-c3nc(-c4cnc5c(cnn5C)c4)c4ccsc4c3-c3c(F)cc(F)cc3OCCO)nn2C[C@H]1C [Compound 885]
[1]
  % of modification: A (percent of modification of PIK3CA protein ≥75%)
pAKT in BT474 cells
  IC50: < 100 nM

## C=CC(=O)N1CCn2nc(-c3nc(-c4cnc5c(cnn5C)c4)c4ccsc4c3-c3c(F)cc(F)cc3OCCOC)cc2[C@@H]1C [Compound 888]
[1]
  % of modification: A (percent of modification of PIK3CA protein ≥75%)
pAKT in BT474 cells
  IC50: < 100 nM

## C=CC(=O)N1CCn2nc(-c3nc(-c4ccc5c(=O)n(C)ncc5c4)c4ccsc4c3-c3c(F)cc(F)cc3OCCO)cc2[C@H]1C [Compound 889]
[1]
  % of modification: A (percent of modification of PIK3CA protein ≥75%)
pAKT in BT474 cells
  IC50: < 100 nM

## C=CC(=O)N1CCn2nc(-c3nc(-c4ccc5c(c4)CNC(=O)C5)c4ccsc4c3-c3c(F)cc(F)cc3OCCO)cc2[C@H]1C [Compound 890]
[1]
  % of modification: A (percent of modification of PIK3CA protein ≥75%)
pAKT in BT474 cells
  IC50: < 100 nM

## C=CC(=O)N1CCn2nc(-c3nc(-c4ccc5c(c4)CNC5=O)c4ccsc4c3-c3c(F)cc(F)cc3OCCO)cc2C1C (stereo not shown) [Compound 891]
[1]
  % of modification: A (percent of modification of PIK3CA protein ≥75%)
pAKT in BT474 cells
  IC50: < 100 nM

## C=CC(=O)N1CCn2nc(-c3nc(-c4ccc5nncn5c4)c4ccsc4c3-c3c(F)cc(F)cc3OCCO)cc2[C@H]1C [Compound 892]
[1]
  % of modification: A (percent of modification of PIK3CA protein ≥75%)
pAKT in BT474 cells
  IC50: < 100 nM

## C=CC(=O)N1CCn2nc(-c3nc(-c4cnc5c(cnn5C)c4)c4ccsc4c3-c3c(F)cc(F)cc3OC[C@@H](C)O)cc2[C@H]1C [Compound 893]
[1]
  % of modification: A (percent of modification of PIK3CA protein ≥75%)
pAKT in BT474 cells
  IC50: < 100 nM

## C=CC(=O)N1CCn2nc(-c3nc(-c4ccc5c(c4)CCNC5=O)c4ccsc4c3-c3c(F)cc(F)cc3OC[C@@H](C)O)cc2[C@H]1C [Compound 894]
[1]
  % of modification: A (percent of modification of PIK3CA protein ≥75%)
pAKT in BT474 cells
  IC50: < 100 nM

## C=CC(=O)N1CCn2nc(-c3nc(-c4ccc5cnncc5c4)c4ccsc4c3-c3c(F)cc(F)cc3OC[C@@H](C)O)cc2[C@H]1C [Compound 895]
[1]
  % of modification: A (percent of modification of PIK3CA protein ≥75%)
pAKT in BT474 cells
  IC50: < 100 nM

## C=CC(=O)N1CCn2nc(-c3nc(-c4ccc5c(c4)CNC(=O)C5)c4ccsc4c3-c3c(F)cc(F)cc3OC[C@@H](C)O)cc2[C@H]1C [Compound 896]
[1]
  % of modification: A (percent of modification of PIK3CA protein ≥75%)
pAKT in BT474 cells
  IC50: < 100 nM

## C=CC(=O)N1CCn2nc(-c3nc(-c4ccc5nncn5c4)c4ccsc4c3-c3c(F)cc(F)cc3OC[C@@H](C)O)cc2[C@H]1C [Compound 897]
[1]
  % of modification: A (percent of modification of PIK3CA protein ≥75%)
pAKT in BT474 cells
  IC50: < 100 nM

## C=CC(=O)N1CCn2nc(-c3nc(-c4ccc5cnn(C)c(=O)c5c4)c4ccsc4c3-c3c(F)cc(F)cc3OCCOC)cc2[C@@H]1C [Compound 898]
[1]
  % of modification: A (percent of modification of PIK3CA protein ≥75%)
pAKT in BT474 cells
  IC50: < 100 nM

## C=CC(=O)N1CCn2nc(-c3nc(-c4ccc5cnn(C)c(=O)c5c4)c4ccsc4c3-c3c(F)cc(F)cc3OCCO)cc2[C@H]1C [Compound 899]
[1]
  % of modification: A (percent of modification of PIK3CA protein ≥75%)
pAKT in BT474 cells
  IC50: < 100 nM

## C=CC(=O)N1CCn2nc(-c3nc(-c4ccc5ncn(C)c(=O)c5c4)c4ccsc4c3-c3c(F)cc(F)cc3OCCO)cc2C1C (stereo not shown) [Compound 900]
[1]
  % of modification: A (percent of modification of PIK3CA protein ≥75%)
pAKT in BT474 cells
  IC50: < 100 nM

## C=CC(=O)N1CCn2nc(-c3nc(-c4cnc5cnn(C)c5c4)c4ccsc4c3-c3c(F)cc(F)cc3OCCO)cc2C1C (stereo not shown) [Compound 901]
[1]
  % of modification: A (percent of modification of PIK3CA protein ≥75%)
pAKT in BT474 cells
  IC50: < 100 nM

## C=CC(=O)N1CCn2nc(-c3nc(-c4cnc5cnn(C)c5c4)c4ccsc4c3-c3c(F)cc(F)cc3OCCOC)cc2C1C (stereo not shown) [Compound 902]
[1]
  % of modification: A (percent of modification of PIK3CA protein ≥75%)
pAKT in BT474 cells
  IC50: < 100 nM
